Reference: patent US20260365646A1, “AKT1 MODULATORS” (Alterome Therapeutics, Inc., priority 2022, published 2026)
Where two headings read alike, the source gives them in different places.

Molecular target: T1, full length AKT E17K (Homo sapiens, UniProt P31749, E17K)
T1 construct: host or cells: HEK-293 (ATCC CRL-1573)
Experiment: NanoBRET Target Engagement (TE) Intracellular Kinase Assay
Format: cell-based
Outline: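 Live-cell BRET assay: cells expressing NanoLuc-fused full-length AKT E17K incubated 2 h with tracer at target-optimized concentration plus compound. BRET read at 450 nm donor/600 nm acceptor with extracellular NanoLuc inhibitor. EC50 from sigmoidal variable-slope fit of tracer displacement.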

[1] = read-out: NanoBRET AKT1E17K EC50, HEK-293 cells transfected with NanoLuc-AKT E17K, competitive displacement of NanoBRET tracer, 2 hr equilibration, 10-point 3-fold dilution

T1 sequence (P31749 whole entry E17K): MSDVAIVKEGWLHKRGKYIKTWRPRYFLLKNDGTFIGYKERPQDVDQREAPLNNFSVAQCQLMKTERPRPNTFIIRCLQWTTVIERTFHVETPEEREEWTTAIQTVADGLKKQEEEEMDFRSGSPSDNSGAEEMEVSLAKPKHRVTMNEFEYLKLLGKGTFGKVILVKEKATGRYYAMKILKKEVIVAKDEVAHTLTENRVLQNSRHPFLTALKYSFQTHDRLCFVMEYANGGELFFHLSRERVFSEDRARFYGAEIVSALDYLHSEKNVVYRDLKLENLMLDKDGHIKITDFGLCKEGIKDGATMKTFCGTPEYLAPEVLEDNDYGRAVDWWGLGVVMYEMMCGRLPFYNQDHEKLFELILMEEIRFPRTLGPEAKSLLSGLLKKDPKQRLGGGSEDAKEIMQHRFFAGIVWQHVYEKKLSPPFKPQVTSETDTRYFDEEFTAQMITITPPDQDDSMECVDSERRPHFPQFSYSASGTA

SMILES	EC50 [nM]	EC50 [1] [nM]
COc1c(N2CCN(Cc3ccc(-n4c(-c5cccnc5N)nc5ccc(-c6ccccc6)nc54)cc3)CC23CC3)c(=O)c1=O [Example 37, 3-(7-(4-(2-(2-Aminopyridin-3-yl)-5-phenyl-3H-imidazo[4,5-b]pyridin-3-yl)benzyl)-4,7-diazaspiro[2.5]octan-4-yl)-4-methoxycyclobut-3-ene-1,2-dione]	15 to 60	–
COc1c(N2CC[C@]3(CCN(Cc4ccc(-n5c(-c6cccnc6N)nc6ccc(-c7ccccc7)nc65)cc4)C3)C2)c(=O)c1=O [Example 66, (S)-3-(7-(4-(2-(2-aminopyridin-3-yl)-5-phenyl-3H-imidazo[4,5-b]pyridin-3-yl)benzyl)-2,7-diazaspiro[4.4]nonan-2-yl)-4-methoxycyclobut-3-ene-1,2-dione]	–	< 15
COc1c(NN2CCN(Cc3ccc(-n4c(-c5cccnc5N)nc5ccc(-c6ccccc6)nc54)cc3)CC2)c(=O)c1=O [Example 83, 3-((4-(4-(2-(2-aminopyridin-3-yl)-5-phenyl-3H-imidazo[4,5-b]pyridin-3-yl)benzyl)piperazin-1-yl)amino)-4-methoxycyclobut-3-ene-1,2-dione]	–	< 15
COc1c(NC2CCC3(CC2)CCN(Cc2ccc(-n4c(-c5cccnc5N)nc5ccc(-c6ccccc6)nc54)cc2)C3)c(=O)c1=O (centres unmarked) [Example 52, 3-((2-(4-(2-(2-Aminopyridin-3-yl)-5-phenyl-3H-imidazo[4,5-b]pyridin-3-yl)benzyl)-2-azaspiro[4.5]decan-8-yl)amino)-4-methoxycyclobut-3-ene-1,2-dione]	15 to 60	–
COc1c(N(C)C2CCN(Cc3ccc(-n4c(-c5cccnc5N)nc5ccc(-c6ccccc6)nc54)cc3)CC2)c(=O)c1=O [Example 27, 3-((1-(4-(2-(2-aminopyridin-3-yl)-5-phenyl-3H-imidazo[4,5-b]pyridin-3-yl)benzyl)piperidin-4-yl)(methyl)amino)-4-methoxycyclobut-3-ene-1,2-dione]	–	< 15
COc1c(N2[C@@H](C)CN(Cc3ccc(-n4c(-c5cccnc5N)nc5ccc(-c6ccccc6)nc54)cc3)C[C@@H]2C)c(=O)c1=O [Example 70, 3-((2S,6S)-4-(4-(2-(2-aminopyridin-3-yl)-5-phenyl-3H-imidazo[4,5-b]pyridin-3-yl)benzyl)-2,6-dimethylpiperazin-1-yl)-4-methoxycyclobut-3-ene-1,2-dione]	60 to 600	–
COc1c(N2CCN(Cc3ccc(-n4c(-c5cccnc5N)nc5cccnc54)cc3)CC2)c(=O)c1=O [Example 1, 3-(4-(4-(2-(2-Aminopyridin-3-yl)-3H-imidazo[4,5-b]pyridin-3-yl)benzyl)piperazin-1-yl)-4-methoxycyclobut-3-ene-1,2-dione]	> 600	–
Nc1ncccc1-c1nc2ccc(-c3ccccc3)nc2n1-c1ccc(CN2CCC(N3CCCOc4c3c(=O)c4=O)CC2)cc1 [Example 84, 6-(1-(4-(2-(2-aminopyridin-3-yl)-5-phenyl-3H-imidazo[4,5-b]pyridin-3-yl)benzyl)piperidin-4-yl)-2-oxa-6-azabicyclo[5.2.0]non-1(7)-ene-8,9-dione]	> 600	–
COc1c(N2CC3(CCN(Cc4ccc(-n5c(-c6cccnc6N)nc6ccc(-c7ccccc7)nc65)cc4)C3)C2)c(=O)c1=O [Example 55, 3-(6-(4-(2-(2-Aminopyridin-3-yl)-5-phenyl-3H-imidazo[4,5-b]pyridin-3-yl)benzyl)-2,6-diazaspiro[3.4]octan-2-yl)-4-methoxycyclobut-3-ene-1,2-dione]	–	< 15
COc1c(N2CCCC3(CCN(Cc4ccc(-n5c(-c6cccnc6N)nc6ccc(-c7ccccc7)nc65)cc4)CC3)C2)c(=O)c1=O [Example 31, 3-(9-(4-(2-(2-Aminopyridin-3-yl)-5-phenyl-3H-imidazo[4,5-b]pyridin-3-yl)benzyl)-2,9-diazaspiro[5.5]undecan-2-yl)-4-methoxycyclobut-3-ene-1,2-dione]	15 to 60	–
CCOc1c(N2CCN(Cc3ccc(-n4c(-c5cccnc5N)nc5ccc(-c6ccccc6)nc54)cc3)CC2)c(=O)c1=O [Example 24, 3-(4-(4-(2-(2-Aminopyridin-3-yl)-5-phenyl-3H-imidazo[4,5-b]pyridin-3-yl)benzyl)piperazin-1-yl)-4-ethoxycyclobut-3-ene-1,2-dione]	60 to 600	–
COc1c(N2C3CCC2CN(Cc2ccc(-n4c(-c5cccnc5N)nc5ccc(-c6ccccc6)nc54)cc2)C3)c(=O)c1=O [Example 72, 3-(3-(4-(2-(2-aminopyridin-3-yl)-5-phenyl-3H-imidazo[4,5-b]pyridin-3-yl)benzyl)-3,8-diazabicyclo[3.2.1]octan-8-yl)-4-methoxycyclobut-3-ene-1,2-dione]	60 to 600	–
CCSc1c(N(CC)C2CCN(Cc3ccc(-n4c(-c5cccnc5N)nc5ccc(-c6ccccc6)nc54)cc3)CC2)c(=O)c1=O [Example 93, 3-((1-(4-(2-(2-aminopyridin-3-yl)-5-phenyl-3H-imidazo[4,5-b]pyridin-3-yl)benzyl)piperidin-4-yl)(ethyl)amino)-4-(ethylthio)cyclobut-3-ene-1,2-dione]	15 to 60	–
COc1c(NC2CCCCN(Cc3ccc(-n4c(-c5cccnc5N)nc5ccc(-c6ccccc6)nc54)cc3)C2)c(=O)c1=O (centres unmarked) [Example 74, 3-((1-(4-(2-(2-aminopyridin-3-yl)-5-phenyl-3H-imidazo[4,5-b]pyridin-3-yl)benzyl)azepan-3-yl)amino)-4-methoxycyclobut-3-ene-1,2-dione]	60 to 600	–
COc1c(N2CCC3(CCN(Cc4ccc(-n5c(-c6cccnc6N)nc6ccc(-c7ccccc7)nc65)cc4)C3)C2)c(=O)c1=O (centres unmarked) [Example 56, 3-(7-(4-(2-(2-Aminopyridin-3-yl)-5-phenyl-3H-imidazo[4,5-b]pyridin-3-yl)benzyl)-2,7-diazaspiro[4.4]nonan-2-yl)-4-methoxycyclobut-3-ene-1,2-dione]	–	< 15
Nc1ncccc1-c1nc2ccc(-c3ccccc3)nc2n1-c1ccc(CN2CCC(N3CCCSc4c3c(=O)c4=O)CC2)cc1 [Example 85, 6-(1-(4-(2-(2-aminopyridin-3-yl)-5-phenyl-3H-imidazo[4,5-b]pyridin-3-yl)benzyl)piperidin-4-yl)-2-thia-6-azabicyclo[5.2.0]non-1(7)-ene-8,9-dione]	60 to 600	–
CC(C)Oc1c(N2CCN(Cc3ccc(-n4c(-c5cccnc5N)nc5ccc(-c6ccccc6)nc54)cc3)CC2)c(=O)c1=O [Example 25, 3-(4-(4-(2-(2-Aminopyridin-3-yl)-5-phenyl-3H-imidazo[4,5-b]pyridin-3-yl)benzyl)piperazin-1-yl)-4-isopropoxycyclobut-3-ene-1,2-dione]	> 600	–
CCSc1c(N2CCC3(CC2)CN(Cc2ccc(-n4c(-c5cccnc5N)nc5ccc(-c6ccccc6)nc54)cc2)C3)c(=O)c1=O [Example 61, 3-(2-(4-(2-(2-Aminopyridin-3-yl)-5-phenyl-3H-imidazo[4,5-b]pyridin-3-yl)benzyl)-2,7-diazaspiro[3.5]nonan-7-yl)-4-(ethylthio)cyclobut-3-ene-1,2-dione]	15 to 60	–
COc1c(N2CCN(Cc3ccc(-n4c(-c5cccnc5N)nc5ccc(-c6ccccc6)nc54)cc3)C[C@@H]2CO)c(=O)c1=O [Example 79, (R)-3-(4-(4-(2-(2-aminopyridin-3-yl)-5-phenyl-3H-imidazo[4,5-b]pyridin-3-yl)benzyl)-2-(hydroxymethyl)piperazin-1-yl)-4-methoxycyclobut-3-ene-1,2-dione]	60 to 600	–
COc1c(N2CCC3(CCN(Cc4ccc(-n5c(-c6cccnc6N)nc6ccc(-c7ccccc7)nc65)cc4)CC3)CC2)c(=O)c1=O [Example 99, 3-(9-(4-(2-(2-aminopyridin-3-yl)-5-phenyl-3H-imidazo[4,5-b]pyridin-3-yl)benzyl)-3,9-diazaspiro[5.5]undecan-3-yl)-4-methoxycyclobut-3-ene-1,2-dione]	15 to 60	–
CCN(c1c(OC)c(=O)c1=O)C1CCN(Cc2ccc(-n3c(-c4cccnc4N)nc4ccc(-c5ccccc5)nc43)cc2)CC1 [Example 91, 3-((1-(4-(2-(2-aminopyridin-3-yl)-5-phenyl-3H-imidazo[4,5-b]pyridin-3-yl)benzyl)piperidin-4-yl)(ethyl)amino)-4-methoxycyclobut-3-ene-1,2-dione]	–	< 15
[2H]C([2H])([2H])N(c1c(OC)c(=O)c1=O)C1CCN(Cc2ccc(-n3c(-c4cccnc4N)nc4ccc(-c5ccccc5)nc43)cc2)CC1 [Example 100, 3-((1-(4-(2-(2-aminopyridin-3-yl)-5-phenyl-3H-imidazo[4,5-b]pyridin-3-yl)benzyl)piperidin-4-yl)(methyl-d3)amino)-4-methoxycyclobut-3-ene-1,2-dione]	–	< 15
[2H]C([2H])([2H])Oc1c(NC2CCN(Cc3ccc(-n4c(-c5cccnc5N)nc5ccc(-c6ccccc6)nc54)cc3)CC2)c(=O)c1=O [Example 13, 3-((1-(4-(2-(2-Aminopyridin-3-yl)-5-phenyl-3H-imidazo[4,5-b]pyridin-3-yl)benzyl)piperidin-4-yl)amino)-4-(methoxy-d3)cyclobut-3-ene-1,2-dione]	–	< 15
COc1c(N2CC3(CN(Cc4ccc(-n5c(-c6cccnc6N)nc6ccc(-c7ccccc7)nc65)cc4)C3)C2)c(=O)c1=O [Example 41, 3-(6-(4-(2-(2-Aminopyridin-3-yl)-5-phenyl-3H-imidazo[4,5-b]pyridin-3-yl)benzyl)-2,6-diazaspiro[3.3]heptan-2-yl)-4-methoxycyclobut-3-ene-1,2-dione]	> 600	–
CSc1c(NC2CCN(Cc3ccc(-n4c(-c5cccnc5N)nc5ccc(-c6ccccc6)nc54)cc3)CC2)c(=O)c1=O [Example 45, 3-((1-(4-(2-(2-aminopyridin-3-yl)-5-phenyl-3H-imidazo[4,5-b]pyridin-3-yl)benzyl)piperidin-4-yl)amino)-4-(methylthio)cyclobut-3-ene-1,2-dione]	–	< 15
COc1c(N(CCO)C2CCN(Cc3ccc(-n4c(-c5cccnc5N)nc5ccc(-c6ccccc6)nc54)cc3)CC2)c(=O)c1=O [Example 48, 3-((1-(4-(2-(2-Aminopyridin-3-yl)-5-phenyl-3H-imidazo[4,5-b]pyridin-3-yl)benzyl)piperidin-4-yl)(2-hydroxyethyl)amino)-4-methoxycyclobut-3-ene-1,2-dione]	–	< 15
